Measured values from article PMC3871595, “Structure Based Identification and Characterization of Flavonoids That Disrupt Human Papillomavirus-16 E6 Function” (PLoS ONE, 2013).
Entries after “also recorded” stand apart in the source; their conditions may differ. Read-outs that look alike come from different tables or passages of the source.

Legend:
[1] = molecular target: T1, interaction between HPV-16 E6 and E6AP (Human papillomavirus type 16, UniProt P03126); experiment: biochemical; format: binding; settings: for Emax: read-out: Maximal Inhibition; for activity and potency in E6/E6AP binding assay (in words): SAR library, initial 5-point dose range 12.3 µM to 1 mM
T1 construct: made in house; host or cells: E. coli BL21
Procedure: To characterize potential E6 inhibitors, a robust in vitro assay was developed to measure the interaction between HPV-16 E6 and E6AP. […] The core 70 amino acids of the E6 binding region of E6AP (residues 371-440) was fused to bacterial alkaline phosphatase (BAP) in the MY101 vector [40]. […] Binding efficiency was determined from the intensity of BAP activated chemiluminescence remaining in each well.
Kinetic analysis was performed to characterize the protein-protein interaction inherent in this assay.
The collection of 72 available structural-lead compounds was tested in the filter-plate based in vitro E6-E6AP binding assay. […] Compounds that disrupted the Flag-BAP interaction with the same potency as the HPV-16 E6 and E6AP interaction were classified as non-specific and eliminated from further analysis. […]
(§1) Pre-Block - 96-well filter plates were prepared (0.2 µm BioTrace NT, Pall). 100µL of blocking buffer (100 mM Tris pH 8.0, 100 mM NaCl, 0.1% milk) was added per well. Plates were blocked for 1 hr at RT on an orbital shaker. Buffer was removed by vacuum filtration using a vacuum manifold. GST-E6 Bead addition – GST-E6 beads were prepared at 5µg/mL in GST-E6 bead buffer (100 mM Tris pH 8.0, 100 mM NaCl, 0.1% milk, 2.5 mM DTT). 100µL of GST-E6 bead mix was added per well and incubated for 1 hr at 4°C. Buffer was removed by vacuum filtration. […] 48 µL of each reagent was added per well. For drug assay, 2µL of compound was added to each well and mixed thoroughly. […] Plates were incubated for 1-3 hours at RT on an orbital shaker. Buffer was removed by vacuum filtration. Plates were washed on the vacuum manifold, first with 200 µL buffer (100 mM Tris pH 8.0, 100 mM NaCl, 1 mM DTT), and twice more with 100µL lysis buffer without DTT. Plates were cleared and dried with on the vacuum manifold. Assay – Immunostar assay reagent was prepared and equilibrated to RT prior to addition. 60 µL of Immunostar-AP assay reagent was added, the BAP activity was allowed to develop for 10 minutes and the plates were read on a Wallace Luminometer. BAP activity was measured as relative light units (RLU) on a luminometer using the Immunostar-AP substrate (BioRad).

[2] = tested on: HPV-16 E6 mediated p53 degradation; experiment: in vitro HPV-16 E6 mediated p53 degradation assay; format: biochemical
Procedure: In vitro expressed p53 was incubated in rabbit reticulocyte lysate in the presence or absence of in vitro expressed HPV16 E6. p53 levels were reduced in reaction containing E6 proteins (Figure 8 ).
Control reactions (no DNA, p53 alone) were incubated with 1 µL wheat germ extract and 2% DMSO in reaction buffer. In vitro translated p53 and rabbit reticulocyte lysate (RRL, Promega) were added to all reactions except the no DNA control reaction to which wheat germ extract was added instead of p53. Reactions were incubated for 3 hrs at 30°C and stopped by addition of 6X reducing SDS sample buffer and heating at 95°C for 5 min. Each reaction was loaded onto a 10% SDS-PAGE gel and transferred onto PVDF (0.45 µm). p53 and 16E6 were visualized using monoclonal p53 (Pab1801, 1:1000), monoclonal 16E6 (813, Arbor Vita Corporation, 1:4000) antibody and anti-mouse HRP-labeled secondary antibody (1:2000, Sigma-Aldrich).

MBP-E6 = molecular target: T2, MBP-E6 (Human papillomavirus type 16, UniProt P03126); experiment: thermal shift (Sypro Orange) assay; format: binding, HPV-16; settings: versus DMSO; for effect on Tm of MBP-E6: 5-150 µM tested
T2 construct: made in house; host or cells: E. coli BL21DE(3)
Procedure: A thermal shift assay was used to assess compound binding to HPV E6. In this reaction, protein denaturation is measured by an increase in fluorescence from Sypro Orange as it binds to the newly exposed hydrophobic surfaces on the protein [48]. A protein stability curve is created as a measure of the rate of protein unfolding. The relative fluorescence is plotted against temperature and the melting temperature (Tm) is determined by calculating the temperature of peak fluorescence. Ligand binding can stabilize the protein and increase the Tm. The thermal profile of MBP-E6 proteins was investigated to determine if the flavonoid derivatives could stabilize MBP-E6 protein structure during heat-induced unfolding. […] The change in Tm (∆Tm) was plotted for each compound and compared to DMSO (Figure 10F,G ).
MBP-16E6 DNA, a kind gift from G. Travé [58], was transformed into BL21DE(3) E. coli. Protein expression was performed by inoculation of a 1 mL starter culture in 100 mL of Turbo-Broth containing 0.2 % lactose, 0.05% glucose and 0.6% glycerol at 20°C for 24 hrs. Cells were lysed in 50 mM Tris HCl pH 6.8, 300 mM NaCl, 0.1 % (v/v) NP-40, 2 mM DTT and 1x protease inhibitor cocktail (EDTA-free, Roche) and sonicated as described before. Cell lysate was cleared by centrifugation at 15000xg, 4°C for 30 min and equilibrated with amylose resin beads (New England Biolabs, Inc.) by inversion for 3 hrs at 4°C. Bound beads were washed one time in lysis buffer and four times with wash buffer (50 mM Tris-HCl pH 6.8, 400 mM NaCl, 2 mM DTT, 1x protease inhibitor cocktail). Bound MBP-E6 proteins were eluted using a final concentration of 20 mM maltose in 5 bed volumes of wash buffer. All steps were performed at 4°C. Protein concentration was measured by BCA (BioRad). Thermostability of MBP-E6 proteins was analyzed at a final concentration of 1 µM in reaction buffer (50 mM TrisHCl pH 6.8, 400 mM NaCl, 2 mM DTT). MBP-E6 proteins were equilibrated with CAF-8 (5 µM-150 µM), CAF-24 (5 µM-150 µM), CAF-26 (5 µM-150 µM) or DMSO for 30 min in reaction buffer. Sypro Orange, a hydrophobic fluorescent dye, was added at the end of the incubation period at a final concentration of 5X. The final DMSO concentration (1.8% v/v) was kept constant across the concentration range. Fluorescence was measured using the FRET channel of CFX96 Real-Time PCR thermal cycler (BioRad) over a temperature range of 25°C to 95°C. Temperature increments were set to 0.5°C for 30 sec followed by plate reading. Melt curves were determined in triplicate and repeated four times. Melt curves represent the relative fluorescence of the 1st derivative of four experiments. Melting temperature (Tm) was calculated by CFX manager software. The average melting temperature of the triplicate was used to calculate the ∆Tm for each experiment. ∆Tm values are expressed as the change vs. DMSO.

[3] = solubility in aqueous SPR buffers; format: physicochemical; settings: simple aqueous solution
[4] = molecular target: T3, interaction between GST-E6 and three PDZ domains of hDlg fused to BAP (hDlg-BAP) (Human papillomavirus type 16, UniProt P03126); experiment: E6/hDlg-BAP specificity filter binding assay; set-up: species or system HPV-16
T3 construct: made in house; host or cells: E. coli BL21
Procedure: (§2) This interaction between E6 and hDlg occurs at the C-terminus of E6 and is independent of the interaction between E6 and the charged leucine helix in E6AP [21, 22].
as §1, with “Plates were cleared and dried with on the vacuum manifold. Assay – Immunostar assay reagent was prepared and equilibrated to RT prior to addition.” left out

[5] = tested on: interaction between anti-FLAG antibody and the FLAG epitope in the E6AP-BAP fusion; experiment: FLAG/BAP specificity filter binding assay
Procedure: The collection of 72 available structural-lead compounds was tested in the filter-plate based in vitro E6-E6AP binding assay. Compounds were tested twice at concentrations of 10, 50, and 100 µM. […] Compounds that disrupted the Flag-BAP interaction with the same potency as the HPV-16 E6 and E6AP interaction were classified as non-specific and eliminated from further analysis.
Figure 3 Activity of flavonoids in the in vitro binding assay. Compounds were tested in vitro for the ability to disrupt the E6-E6AP interaction. […] Percent inhibition was determined by the amount of BAP activity remaining in the well after washing and normalized to DMSO. Data was plotted by linear regression for single site binding using Prism (n=3, S.E.M.).
as §2

[6] = molecular target: T4, GST-HPV-16 E6 (human papillomavirus type 16), P03126; experiment: filter plate bead binding assay (BAP chemiluminescence); competition: peptide added to bead-bound GST-E6 and free E6AP-BAP; 1 hour incubations
T4 chain: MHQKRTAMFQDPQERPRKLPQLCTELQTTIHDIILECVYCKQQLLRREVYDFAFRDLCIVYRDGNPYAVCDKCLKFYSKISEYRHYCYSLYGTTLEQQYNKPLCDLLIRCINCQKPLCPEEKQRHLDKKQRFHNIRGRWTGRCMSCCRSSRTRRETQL

[7] = in silico leads retested in duplicate at 5 concentrations 5 to 250 µM

O=c1cc(-c2cccc(C(F)(F)F)c2)oc2ccc(-c3nnn[nH]3)cc12 [CAF25]
IC50 [1]: 1.1 µM
Emax [1]: 95%

O=c1cc(-c2ccccc2)oc2ccc(-c3cccc(-c4nnn[nH]4)c3)cc12 [CAF27]
IC50 [1]: 6.9 µM
Emax [1]: 96%

O=C(O)c1cccc(-c2ccc3oc(-c4cccc(O)c4)cc(=O)c3c2)c1 [CAF28]
Emax [1]: 75%

COc1ccc(-c2ccc3oc(-c4ccccc4)cc(=O)c3c2)c(OC)c1C(=O)O [CAF29]
IC50 [1]: 12.5 µM
Emax [1]: 75%

O=C(O)c1cccc(-c2ccc3c(=O)cc(-c4ccccc4)oc3c2)c1 [CAF30]
IC50 [1]: 47.3 µM
Emax [1]: 84%

O=C(O)c1cc(-c2ccc3c(=O)cc(-c4ccccc4)oc3c2)ccc1Cl [CAF31]
IC50 [1]: 62.2 µM
Emax [1]: 86%

O=C(O)c1cc(-c2ccc3c(=O)cc(-c4ccccc4)oc3c2)ccc1F [CAF32]
IC50 [1]: 48 µM
Emax [1]: 75%

COc1cc(OC)c2c(=O)cc(-c3ccc(OC)c(OC)c3)oc2c1 [CAF-8]
effect on E6 mediated p53 degradation ([2]; 10 µM compound pre-incubated with E6): did not alter E6 mediated p53 degradation
effect on E6 mediated p53 degradation ([2]; 100 µM compound pre-incubated with E6): did not alter E6 mediated p53 degradation
activity and potency in E6/E6AP binding assay (in words) [1]: no activity
effect on Tm of MBP-E6 (MBP-E6): unable to significantly alter MBP-E6 melting temperature; also recorded: no measurable effect

COc1cc(O)cc2oc(-c3ccc(O)c(O)c3)cc(=O)c12 [CAF-10]
activity and potency in E6/E6AP binding assay (in words) [1]: same potency and activity as luteolin

O=c1cc(-c2ccc(O)c(O)c2)oc2cccc(O)c12 [CAF-13]
increase of IC50 relative to luteolin [1]: 15-30 fold

O=c1cc(-c2ccc(O)cc2)oc2cc(O)cc(O)c12 [CAF-14]
increase of IC50 relative to luteolin [1]: 15-30 fold

O=c1cc(-c2ccccc2)oc2ccc(-c3nnn[nH]3)cc12 [CAF-26]
aqueous solubility (in words) [3]: limited aqueous solubility
IC50 [1]: 5.1 µM
IC50 ([1]; full 7-point dose response, 0.5 µM to 333 µM, quadruplicate): low micromolar IC50 values
Emax [1]: 97%
effect on Tm of MBP-E6 (MBP-E6): about 1 °C
shift of MBP-E6 Tm (MBP-E6; at 25, 50 and 150 µM): ~1 °C
specificity against hDlg control binding reaction [4]: increased specificity against the FLAG and hDlg control binding reactions
non-specific inhibition / specificity in FLAG-E6AP control assay [5]: increased specificity against the FLAG and hDlg control binding reactions

COc1ccc(CC2c3c(cc(OC)c(O)c3OC)CCN2C)cc1OC (centres unmarked) [Compound 117]
IC50 [1, 7]: low micromolar IC50 values
non-specific inhibition / specificity in FLAG-E6AP control assay [5]: inhibited binding in the FLAG-E6AP assay

COc1ccc(NC2Oc3cc(O)ccc3C=C2C(=O)Nc2cccc(C)n2)cc1OC (centres unmarked) [Compound 160]
IC50 [1, 7]: low micromolar IC50 values
non-specific inhibition / specificity in FLAG-E6AP control assay [5]: inhibited binding in the FLAG-E6AP assay

CC(=O)Oc1cc(OC(C)=O)c2c(=O)c(OC(C)=O)c(-c3ccc(OC(C)=O)c(OC(C)=O)c3)oc2c1 [Compound 168]
IC50 [1]: 44 µM
IC50 [1, 7]: low micromolar IC50 values
non-specific inhibition / specificity in FLAG-E6AP control assay [5]: some non-specific inhibitory activity

CC(=O)Oc1cc(OC(C)=O)c2c(=O)cc(-c3ccc(OC(C)=O)c(OC(C)=O)c3)oc2c1 [Compound 170]
IC50 [1]: 44 µM
activity and potency in E6/E6AP binding assay (in words) [1]: much lower activity and potency than observed with the initial hit
IC50 [1, 7]: low micromolar IC50 values
non-specific inhibition / specificity in FLAG-E6AP control assay [5]: more selective inhibitor of the E6-E6AP interaction

CC[C@H](C)[C@H](N)C(=O)N1CCC[C@H]1C(=O)N[C@@H](CCC(=O)O)C(=O)N[C@@H](CO)C(=O)N[C@@H](CO)C(=O)N[C@@H](CCC(=O)O)C(=O)N[C@@H](CC(C)C)C(=O)N[C@H](C(=O)N[C@@H](CC(C)C)C(=O)N[C@@H](CCC(N)=O)C(=O)N[C@@H](CCC(=O)O)C(=O)N[C@@H](CC(C)C)C(=O)N[C@@H](CC(C)C)C(=O)NCC(=O)N[C@@H](CCC(=O)O)C(=O)N[C@@H](CCC(=O)O)C(=O)N[C@@H](CCCNC(=N)N)C(=O)N[C@@H](CCCNC(=N)N)C(=O)O)[C@@H](C)O [E6AP 18-mer, reference compound]
inhibition at 100 µM ([1]; read-out: inhibition of binding): 95%

IPESSELTLQELLGEERR (modifications not checked) [E6AP 18-mer peptide]
percent inhibition at 100 µM [6]: 95%
